These results are taken from publication PMC4549712, “Inhibition of human GLUT1 and GLUT5 by plant carbohydrate products; insights into transport specificity” (Scientific Reports, 2015).

One assay addresses T1, human GLUT1 (Homo sapiens, UniProt P11166).
T1 construct: Full length DNA was subcloned into pFastBac1 (Life Technologies) vector with a N-terminal hexahistidine tag; hexahistidine (thrombin-cleavable) (N, cleaved yes); made in house; host or cells: Sf21 insect cells (baculovirus, pFastBac1)
T1 sequence (P11166 1-492): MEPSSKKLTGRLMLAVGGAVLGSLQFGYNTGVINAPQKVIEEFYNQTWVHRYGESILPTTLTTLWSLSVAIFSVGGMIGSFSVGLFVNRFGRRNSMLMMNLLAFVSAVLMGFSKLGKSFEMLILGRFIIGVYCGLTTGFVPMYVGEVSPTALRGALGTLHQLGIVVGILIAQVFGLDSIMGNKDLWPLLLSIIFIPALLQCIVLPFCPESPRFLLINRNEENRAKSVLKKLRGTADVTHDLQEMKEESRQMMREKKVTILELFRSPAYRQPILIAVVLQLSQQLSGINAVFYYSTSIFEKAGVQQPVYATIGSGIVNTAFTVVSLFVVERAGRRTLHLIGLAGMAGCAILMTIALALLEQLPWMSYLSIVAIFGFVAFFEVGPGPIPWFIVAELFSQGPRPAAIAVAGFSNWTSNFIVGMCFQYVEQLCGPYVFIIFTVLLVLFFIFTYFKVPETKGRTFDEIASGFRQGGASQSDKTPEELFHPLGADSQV
The assay is described as follows: entrance counter-flow transport assay, GLUT1-mediated glucose transport in proteoliposomes. The format is biochemical. Here is the method: Human GLUT1 and GLUT5 were expressed recombinantly in insect cell culture. The purified proteins were reconstituted into proteoliposomes. To measure the inhibition of GLUT1 or GLUT5 transport activity we used entrance counter-flow transport assay. In GLUT1 and GLUT5 proteoliposomes, substrate transport reached steady state after one minute incubation at room temperature.
Proteoliposomes were generated according to the protocol from[30] with minor modifications. Liposomes were produced from a 95/5% (w/w) mix of soy phosphatidylcholine and cholesterol (Avanti Polar Lipids). Briefly, hexane-washed and vacuum-dried lipids were resuspended to 20 mg/ml in 100 mM KPi (pH 7.5), and then subjected to 11 freeze-and-thaw cycles in liquid nitrogen and room temperature water. The lipid mixture was extruded through a 0.1 μm polycarbonate filter. Prepared liposomes were destabilized with 4 mM Triton X-100 and mixed with purified protein in a 100:1 (w/w) ratio in 100 mM KPi (pH 7.5) 20% (v/v) glycerol, 200 mM (glucose or fructose). Detergent was removed by several additions of SM2 BioBeads (BioRad) and incubated overnight at 4 °C. After filtering out the BioBeads, proteoliposomes were diluted with 100 mM KPi (pH 7.5) 200 mM (glucose or fructose), and then collected by ultracentrifugation, at 200,000 × g and 4 °C, for 1 hour. The proteoliposomes pellet was resuspended in the above buffer so that O.D.600nm was ~30.
To measure hexose transport, we utilized entrance counter-flow assay. Transport was performed in a volume of 100 μL of 100 mM KPi (pH 7.5) buffer containing radioactive ^14C-hexose (4 μM fructose or 5 μM glucose) with inhibitors added before initiation of transport. Radioactive substrate uptake in GLUT1 and GLUT5 (wild-type or mutant) proteoliposomes was constant between 1 and 2 mins. The reaction was started by the addition of 3 μL concentrated proteoliposomes to the above solution and incubated at room temperature; the transport was stopped after one minute by addition of ice-chilled quench buffer [100 mM KPi (pH 5.5) and 100 mM LiCl]. The solution was filtered through a 0.4 μm pore size cellulose nitrate membrane filter (Whatman), and the filter was washed three times with quench buffer. The membrane filter was placed into a vial filled with BioSafe II scintillation liquid (Research Products International Corp.), and radioactivity was quantified with LS 6500 scintillation counter (Beckman). […] The transport assays were unaffected by 5% DMSO. Data is presented as relative activity normalized to radioactivity of no inhibitor added as 100% and empty proteoliposomes as 0%. Kinetic parameters were fitted by nonlinear algorithm plots using Prism (GraphPad Software).

A further assay has as its target T2, GLUT1W388A (Homo sapiens, UniProt P11166, W388A).
T2 construct: Full length DNA was subcloned into pFastBac1 (Life Technologies) vector with a N-terminal hexahistidine tag; hexahistidine (thrombin-cleavable) (N, cleaved yes); made in house; host or cells: Sf21 insect cells (baculovirus, pFastBac1)
T2 sequence (P11166 1-492 W388A): T1 sequence (P11166 1-492) with W388A
Put plainly: entrance counter-flow transport assay, glucose transport by GLUT1W388A proteoliposomes. The class given is biochemical. Particulars: any tested concentration, up to 20 mM. Here is the method:
We expressed and purified GLUT1W388A and GLUT5A396W. Purified mutant proteins were reconstituted into proteoliposomes and activity was determined by entrance counter-flow transport assay.
cDNAs of GLUT1 and GLUT5 were purchased from Open Biosystems (GE Healthcare). Full length DNA was subcloned into pFastBac1 (Life Technologies) vector with a N-terminal hexahistidine tag. Bacmids were generated in DH10Bac E. coli cells (Life Technologies). Baculoviruses were produced using Cellfectin II Reagent and amplified in Sf21 insect cells (Life Technologies). Cells were maintained at 26 °C, and P1 (10^6 pfu/mL) was collected from infected cells after 72 hours. Sf21 cells were propagated in HyClone SFX-Insect media (GE Healthcare), supplemented with 5% fetal bovine serum (Biowest), antibiotics (100 units/mL Penicillin G and 100 μg/mL streptomycin sulfate) and amphotericin B (2.5 μg/mL). For recombinant protein expression, Sf21 cells in suspension culture at 2 × 10^6 cells/ml were infected with P3 viral stock (10^8 pfu/mL), at an MOI of 1.0 pfu/cell. Four days after viral infection, cells from 2 L culture were collected by centrifugation at 2,000 × g and 25 °C. […]

Substitutions are numbered along the chain they refer to. Several values for one entry are separate records, joined by “and”; a condition that tells them apart may be missing. Equal values may be shown once. Entries after “also recorded” stand apart in the source; their conditions may differ.

What is called IC50 is the concentration that gives 50% inhibition. A lower IC50 goes with greater potency.

For the compound `C=C1C[C@@]23CC[C@H]4[C@@](C)(CCC[C@@]4(C)C(=O)O[C@@H]4O[C@H](CO)[C@@H](O)[C@H](O)[C@H]4O)[C@@H]2CC[C@]1(O[C@@H]1O[C@H](CO)[C@@H](O)[C@H](O)[C@H]1O)C3` [Rub, Rubusoside], the “inhibition of GLUT1 glucose transport activity” value on human GLUT1 (20 mM) is on record as “reducing activity to background levels”. Further, the IC50 on human GLUT1 (entrance counter-flow) was 4.6 mM and ~5 mM. The “inhibition of glucose transport by GLUT1W388A” value against GLUT1W388A is “not inhibited; also recorded: did not inhibit”.
